Assay results from patent US20090042814A1, “Treatment and Diagnosis of Obligate Intracellular Pathogens” (priority 2005, published 2009).

Legend:
Chlamydia pneumoniae = assay: Antibiotic susceptibility test in HL cells (MIC, no inclusions detected); type: cell-based; conditions: 72 h
Description: (§1) For Chlamydia trachomatis isolation McCoy cells were used and for Chlamydia pneumoniae—HL cells.
(§2) Cells of each cell line were seeded into 24-well cell culture plates (approximately 2×10^5 cells per well) with cover-slips and incubated at 37° C. for 24 h to achieve monolayer confluence.
(§3) 1 ml of serum was centrifuged at 14,000×g for 1 h at 4° C. to sediment bacterial cells. Supernatant was discarded and pellet was suspended in 0.5 ml of GM (growth medium: RPMI, 5% [vol/vol] fetal calf serum, 2.0 mM L-glutamine, 8.8% [vol/vol] glucose, 4.0 μg of gentamicin per ml and 5.0 of amfotherycin B/ml). The cell monolayers were inoculated with the suspensions and centrifuged at 2,500×g for an hour at 20 °C. The infected cells were incubated for 2 h at 37° C.; after that, the medium was removed and replaced by GM with cycloheximide (1.0 μg/ml). The cells were incubated at 37° C. in 4% CO2 for 72 h.
(§4) The cells on the cover-slips were fixed with acetone and stained with a fluorescein isothiocyanate (FITC)-labeled Chlamydia genus-specific (anti-LPS) and Chlamydia trachomatis-specific (anti-MOMP) antibodies. Chlamydia inclusions were detected by fluorescent microscopy.
(§5) McCoy and HL cells were seeded and inoculated with serum samples as described above but after centrifugation at 2,500×g for an hour and incubation for 2 h at 37° C. the infected cells were overlaid with the growth medium containing serial twofold dilutions of the antibiotic (Azithromycin, Pliva) at concentration range from 0.05 to 0.8 μg/ml and incubated at 37° C. in 4% CO2 for 72 h. Chlamydia trachomatis L-2 and Chlamydia pneumoniae Kajaani 6 strains were used as reference strains. The MIC was defined as the lowest concentration at which no inclusions were detected.

Chlamydia trachomatis = assay: Antibiotic susceptibility test in McCoy cells (MIC, no inclusions detected); type: cell-based; conditions: 72 h
Description: as §1, §2, §3, §4, §5

CC[C@H]1OC(=O)[C@H](C)[C@@H](O[C@H]2C[C@@](C)(OC)[C@@H](O)[C@H](C)O2)[C@H](C)[C@@H](O[C@@H]2O[C@H](C)C[C@H](N(C)C)[C@H]2O)[C@](C)(O)C[C@@H](C)CN(C)[C@H](C)[C@@H](O)[C@]1(C)O [Azithromycin]
Range of anti-microbial concentration (Chlamydia pneumoniae; Chlamydia pneumoniae isolated from serum of Patient C): >0.4 µg/mL
Range of anti-microbial concentration (Chlamydia pneumoniae; Chlamydia pneumoniae isolated from serum of Patient D): >0.4 µg/mL
Range of anti-microbial concentration (Chlamydia pneumoniae; Chlamydia pneumoniae reference strain Kajaani 6): >0.05 µg/mL
Range of anti-microbial concentration (Chlamydia trachomatis; Chlamydia trachomatis isolated from serum of Patient A): >0.4 µg/mL
Range of anti-microbial concentration (Chlamydia trachomatis; Chlamydia trachomatis isolated from serum of Patient B): >0.4 µg/mL
Range of anti-microbial concentration (Chlamydia trachomatis; Chlamydia trachomatis reference strain L-2, tested range 0.05 to 0.8 μg/ml): >0.1 µg/mL
